From US20220362396A1, “AMINO-PYRAZINECARBOXAMIDE COMPOUNDS, CONJUGATES, AND USES THEREOF” (Silverback Therapeutics, Inc., priority 2018, published 2022)

Columns and labels:
[1] = test system: TGFβ/SMAD Signaling Pathway SBE reporter cell line; test: TGFβ reporter assay, in vitro small molecule screening (luciferase); format: cell-based; conditions: TGFβ stimulation, luminescence
Procedure: TGFβ/SMAD Signaling Pathway SBE reporter cell line was obtained from BPS Bioscience. Cells were passed, expanded, and stored in liquid nitrogen as per the supplier's instructions with the exception that growth media is changed to DMEM-C with Geneticin (DMEM supplemented with 10% fetal bovine serum, 1×NEAA, 1 mM Pyruvate, 2 mM glutamine, 50 μg/mL penicillin, 50 U/mL streptomycin and 400 μg/mL of Geneticin). The assay media was MEM supplemented with 0.5% fetal bovine serum, 1×NEAA, 1 mM Pyruvate, 50 μg/mL penicillin and 50 U/mL streptomycin.
Test samples (at desired concentrations diluted in assay media) were added to a 96-well assay plate, 20 μL per well. Reporter cells were harvested from the tissue culture flasks by incubation in small quantity of PBS at 37° C. for two minutes after the media in the flask is removed and cells rinsed with PBS. Cells were counted and diluted in the assay media at approximately 0.5×10^6 cells/mL and then 80 μL/well of cells were added to the assay plate containing the 20 μL/well of test samples (or media only), and incubated for approximately 5-6 hours at 37° C. in a 5% CO2 humidified incubator. After that time, 15 μL of TGFβ diluted to 12 ng/mL in the assay media was added to the plate. Controls included TGFβ titration (from 50 to 0 ng/mL) without inhibitors, and media only (without cells, inhibitor or TGFβ). Plates were incubated at 37° C. in a 5% CO2 humidified incubator for 18 h. Luciferase substrate solution is subsequently added at 100 μL per well, incubated in the dark at room temperature for 15 min, and luminescence is measured using a luminometer. EC50 values and curve fits were obtained using Prism (GraphPad Software).

TGFBR2 = molecular target: T1, TGFBR2 (Homo sapiens, UniProt P37173); test: TGFBR2 RBC assay (enzyme inhibition assay, Reaction Biology Corp.); format: biochemical
T1 construct: purchased Reaction Biology Corp
T1 sequence (P37173 23-567): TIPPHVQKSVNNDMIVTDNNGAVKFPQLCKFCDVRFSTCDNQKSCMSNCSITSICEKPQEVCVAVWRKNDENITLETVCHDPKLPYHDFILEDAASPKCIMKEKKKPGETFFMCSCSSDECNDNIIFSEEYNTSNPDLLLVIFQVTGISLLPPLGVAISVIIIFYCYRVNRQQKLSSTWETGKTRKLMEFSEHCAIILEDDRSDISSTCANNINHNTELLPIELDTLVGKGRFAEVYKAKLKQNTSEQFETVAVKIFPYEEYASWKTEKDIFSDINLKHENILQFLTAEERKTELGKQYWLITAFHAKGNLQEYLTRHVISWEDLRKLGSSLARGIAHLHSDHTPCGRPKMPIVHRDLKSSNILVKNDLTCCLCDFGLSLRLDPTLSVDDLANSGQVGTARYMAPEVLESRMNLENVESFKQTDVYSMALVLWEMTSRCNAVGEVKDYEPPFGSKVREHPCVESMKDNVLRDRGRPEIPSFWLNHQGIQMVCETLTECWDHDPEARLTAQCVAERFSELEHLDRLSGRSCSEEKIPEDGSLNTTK
Procedure: Compounds of the disclosure were also assayed by Reaction Biology Corp. using the TGFBR2 RBC assay (enzyme inhibition assay). […] NT refers to not tested.

EC50 [1] [nM]	IC50 (TGFBR2) [nM]	SMILES
100 to 1000	< 50	Nc1nc(-c2ccc(CCC(=O)N3CCN(C(=O)OCc4ccccc4)CC3)cc2)cnc1C(=O)Nc1cnccc1N1CCOCC1 [Compound 86]
50 to 100	< 50	Nc1ncc(-c2ccc(CN3CCNCC3=O)cc2)nc1C(=O)Nc1cnccc1N1CCOCC1 [Compound 87]
50 to 100	< 50	Nc1ncc(-c2ccc(CCC(=O)N3CCNCC3)cc2)nc1C(=O)Nc1cnccc1N1CCOCC1 [Compound 88]
50 to 100	< 50	CC(C)(C)OC(=O)N1CCN(Cc2ccc(-c3cnc(N)c(C(=O)Nc4cnccc4N4CCOCC4)n3)cc2)CC1 [Compound 89]
50 to 100	< 50	Nc1ncc(-c2ccc(CC(=O)N3CCN(C(=O)OCc4ccccc4)CC3)cc2)nc1C(=O)Nc1cnccc1N1CCOCC1 [Compound 90]
50 to 100	50 to 100	Nc1ncc(-c2ccc(CN3CCNCC3)cc2)nc1C(=O)Nc1cnccc1N1CCOCC1 [Compound 91]
100 to 1000	< 50	Nc1ncc(-c2ccc(CC(=O)N3CCNCC3)cc2)nc1C(=O)Nc1cnccc1N1CCOCC1 [Compound 92]
100 to 1000	100 to 1000	NCCc1ccc(-c2cnc(N)c(C(=O)Nc3cnccc3CN3CCCC3)n2)cc1 [Compound 93]
100 to 1000	< 50	Nc1ncc(-c2ccc(CC(=O)NCCNC(=O)OCc3ccccc3)cc2)nc1C(=O)Nc1cnccc1N1CCOCC1 [Compound 94]
> 1000	> 1000	Nc1ncc(-c2ccc(CCNC(=O)OCc3ccccc3)cc2)nc1C(=O)Nc1cnccc1N1CC2(COC2)C1 [Compound 95]
> 1000	> 1000	COC1CN(c2ccncc2NC(=O)c2nc(-c3ccc(CCNC(=O)OCc4ccccc4)cc3)cnc2N)C1 [Compound 96]
> 1000	> 1000	COCCCNc1ccncc1NC(=O)c1nc(-c2ccc(CCN)cc2)cnc1N [Compound 97]
> 1000	> 1000	COC1CN(c2ccncc2NC(=O)c2nc(-c3ccc(CCN)cc3)cnc2N)C1 [Compound 98]
100 to 1000	50 to 100	COCCN(C)c1ccncc1NC(=O)c1nc(-c2ccc(CCNC(=O)OCc3ccccc3)cc2)cnc1N [Compound 101]
100 to 1000	100 to 1000	COCCN(C)c1ccncc1NC(=O)c1nc(-c2ccc(CCN)cc2)cnc1N [Compound 102]
100 to 1000	< 50	COCCCN(C)c1ccncc1NC(=O)c1nc(-c2ccc(CCN)cc2)cnc1N [Compound 103]
> 1000	> 1000	NCCc1ccc(-c2cnc(N)c(C(=O)Nc3cnccc3NCC(N)=O)n2)cc1 [Compound 104]
100 to 1000	100 to 1000	C[C@H](NC(=O)OCC1c2ccccc2-c2ccccc21)C(=O)NCc1ccc(-c2cnc(N)c(C(=O)Nc3cnccc3N3CCOCC3)n2)cc1 [Compound 105]
100 to 1000	50 to 100	C[C@H](N)C(=O)NCc1ccc(-c2cnc(N)c(C(=O)Nc3cnccc3N3CCOCC3)n2)cc1 [Compound 106]
100 to 1000	< 50	CC(C)[C@H](NC(=O)OC(C)(C)C)C(=O)N[C@@H](C)C(=O)NCc1ccc(-c2cnc(N)c(C(=O)Nc3cnccc3N3CCOCC3)n2)cc1 [Compound 107]
50 to 100	50 to 100	CC(C)[C@H](N)C(=O)N[C@@H](C)C(=O)NCc1ccc(-c2cnc(N)c(C(=O)Nc3cnccc3N3CCOCC3)n2)cc1 [Compound 108]
100 to 1000	< 50	CC(C)(C)OC(=O)N1CCC[C@H]1C(=O)NCc1ccc(-c2cnc(N)c(C(=O)Nc3cnccc3N3CCOCC3)n2)cc1 [Compound 109]
100 to 1000	< 50	Nc1ncc(-c2ccc(CNC(=O)[C@@H]3CCCN3)cc2)nc1C(=O)Nc1cnccc1N1CCOCC1 [Compound 110]
100 to 1000	< 50	CC(C)[C@H](NC(=O)OC(C)(C)C)C(=O)N1CCC[C@H]1C(=O)NCc1ccc(-c2cnc(N)c(C(=O)Nc3cnccc3N3CCOCC3)n2)cc1 [Compound 111]
50 to 100	< 50	CC(C)[C@H](N)C(=O)N1CCC[C@H]1C(=O)NCc1ccc(-c2cnc(N)c(C(=O)Nc3cnccc3N3CCOCC3)n2)cc1 [Compound 112]
> 1000	> 1000	CN(CC#N)c1ccncc1NC(=O)c1nc(-c2ccc(CCNC(=O)OCc3ccccc3)cc2)cnc1N [Compound 113]
> 1000	> 1000	Nc1ncc(N2CCC3(CCNCC3)C2)nc1C(=O)Nc1cnccc1N1CCOCC1 [Compound 114]

EC50 [1] [nM]	IC50 (TGFBR2) [nM]	SMILES
> 1000	> 1000	CC(C)(C)OC(=O)N1CCN(c2cnc(N)c(C(=O)Nc3cnccc3N3CCOCC3)n2)CC1 [Compound 115]
100 to 1000	100 to 1000	Nc1ncc(-c2ccc(CCNC(=O)OCc3ccccc3)cn2)nc1C(=O)Nc1cnccc1N1CCOCC1 [Compound 116]
> 1000	100 to 1000	NCCc1ccc(-c2cnc(N)c(C(=O)Nc3cnccc3N3CCOCC3)n2)nc1 [Compound 117]
> 1000	> 1000	Nc1ncc(N2CCNCC2)nc1C(=O)Nc1cnccc1N1CCOCC1 [Compound 118]
> 1000	< 50	Nc1ncc(-c2ccc(CCNC(=O)OCc3ccccc3)cc2)nc1C(=O)Nc1cnccc1-n1ccnn1 [Compound 120]
100 to 1000	< 50	Nc1ncc(-c2ccc(CCNC(=O)OCc3ccccc3)cc2)nc1C(=O)Nc1cnccc1-c1ccccc1 [Compound 121]
> 1000	> 1000	CC(C)(C)OC(=O)NC1CCN(c2cnc(N)c(C(=O)Nc3cnccc3N3CCOCC3)n2)CC1 [Compound 122]
100 to 1000	100 to 1000	Nc1ncc(-c2ccc(CCNC(=O)OCc3ccccc3)nc2)nc1C(=O)Nc1cnccc1N1CCOCC1 [Compound 124]
> 1000	100 to 1000	NCCc1ccc(-c2cnc(N)c(C(=O)Nc3cnccc3N3CCOCC3)n2)cn1 [Compound 125]
100 to 1000	> 1000	Nc1ncc(-c2ccc(CCNC(=O)OCc3ccccc3)cc2)nc1C(=O)Nc1cnc2ccccc2c1N1CCOCC1 [Compound 126]
100 to 1000	< 50	NCCc1ccc(-c2cnc(N)c(C(=O)Nc3cnccc3-c3cccnc3)n2)cc1 [Compound 127]
100 to 1000	< 50	Nc1ncc(-c2ccc(CCNC(=O)OCc3ccccc3)cc2)nc1C(=O)Nc1cnccc1-c1cccnc1 [Compound 128]
100 to 1000	50 to 100	NCCc1ccc(-c2cnc(N)c(C(=O)Nc3cnccc3-c3ccncc3)n2)cc1 [Compound 129]
> 1000	> 1000	NCCc1ccc(-c2cnc(N)c(C(=O)Nc3cnc4ccccc4c3N3CCOCC3)n2)cc1 [Compound 130]
> 1000	> 1000	NCCc1ccc(-c2cnc(N)c(C(=O)Nc3c(N4CCOCC4)ccnc3N)n2)cc1 [Compound 131]
100 to 1000	< 50	NCCc1ccc(-c2cnc(N)c(C(=O)Nc3cnccc3-c3ccccn3)n2)cc1 [Compound 132]
> 1000	< 50	Nc1ncc(-c2ccc(CCNC(=O)OCc3ccccc3)cc2)nc1C(=O)Nc1cnccc1-c1ccccn1 [Compound 133]
100 to 1000	< 50	NCCc1ccc(-c2cnc(N)c(C(=O)Nc3cnc4[nH]ccc4c3N3CCOCC3)n2)cc1 [Compound 134]
> 1000	> 1000	NCCc1ccc(-c2cnc(N)c(C(=O)Nc3cnc(N)cc3N3CCOCC3)n2)cc1 [Compound 135]
> 1000	< 50	NCCc1ccc(-c2cnc(N)c(C(=O)Nc3cnccc3-n3ccnc3)n2)cc1 [Compound 136]
> 1000	< 50	Nc1ncc(-c2ccc(CCNC(=O)OCc3ccccc3)cc2)nc1C(=O)Nc1cnccc1-n1ccnc1 [Compound 137]
> 1000	< 50	Cc1nccn1-c1ccncc1NC(=O)c1nc(-c2ccc(CCN)cc2)cnc1N [Compound 138]
100 to 1000	< 50	NCCc1ccc(-c2cnc(N)c(C(=O)Nc3cncc(Cl)c3N3CCOCC3)n2)cc1 [Compound 139]
> 1000	< 50	CCc1nccn1-c1ccncc1NC(=O)c1nc(-c2ccc(CCN)cc2)cnc1N [Compound 140]
> 1000	< 50	CCc1nccn1-c1ccncc1NC(=O)c1nc(-c2ccc(CCNC(=O)OCc3ccccc3)cc2)cnc1N [Compound 141]
100 to 1000	< 50	CC(C)c1nccn1-c1ccncc1NC(=O)c1nc(-c2ccc(CCN)cc2)cnc1N [Compound 142]
> 1000	< 50	CC(C)c1nccn1-c1ccncc1NC(=O)c1nc(-c2ccc(CCNC(=O)OCc3ccccc3)cc2)cnc1N [Compound 143]
